From US12441725B2, “ISO-citrate dehydrogenase (IDH) inhibitor” (ZHEJIANG METON PHARMACEUTICAL CO., LTD, priority 2019, dated 2025)

Key:
IDH1 R132H = target: T1, IDH1 R132H (Homo sapiens, UniProt O75874, R132H); experiment: Biochemical assay for IDH inhibition (NADPH fluorescence), mutant IDH1 R132H; conditions: 50 nM IDH1-R132H, 1 hour pre-incubation, in triplet
T1 construct: 6xHis
Summary of the method: (§1)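 Mutant enzyme (25 nM R132C or 50 nM R132H) was preincubated 1 h at room temperature with compound in pH 7.5 Tris buffer containing 1.33 mM α-KG, and the reaction was then started with NADPH (80 μM solution). NADPH consumption was followed by fluorescence (Ex 340/Em 460 nm) for 15 min. IC50 was derived from background-corrected linear rates relative to vehicle, run in triplicate.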

IDH1 R132C = target: T2, IDH1 R132C (Homo sapiens, UniProt O75874, R132C); experiment: Biochemical assay for IDH inhibition (NADPH fluorescence), mutant IDH1 R132C; conditions: 25 nM IDH1-R132C, 1 hour pre-incubation, in triplet
T2 construct: 6xHis
Summary of the method: as §1

[1] = target: T3, IDH (endogenous IDH1 R132C) in HT1080 cell (Homo sapiens, UniProt O75874, R132C); experiment: Cell-based assay for IDH inhibition (decrease of D-2-HG) in HT1080 cells; conditions: human fibrosarcoma cell line HT1080, 16 hours treatment, D-2-HG by LC-MS, in triplet
T3 construct: which harbor endogenous heterozygous IDH1 R132C and R132H mutation respectively and accumulate D-2-HG
Summary of the method: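 HT1080 cells with endogenous IDH1 R132C, grown in DMEM/10% FBS, treated with compound at several concentrations for 16 h. Metabolites extracted in cold 40% methanol/40% acetonitrile and D-2-HG measured by HILIC LC-MS/MS, normalized to glutamate. IC50 from D-2-HG relative to DMSO controls; run in triplicate.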

T3 sequence (O75874 2-414 R132C): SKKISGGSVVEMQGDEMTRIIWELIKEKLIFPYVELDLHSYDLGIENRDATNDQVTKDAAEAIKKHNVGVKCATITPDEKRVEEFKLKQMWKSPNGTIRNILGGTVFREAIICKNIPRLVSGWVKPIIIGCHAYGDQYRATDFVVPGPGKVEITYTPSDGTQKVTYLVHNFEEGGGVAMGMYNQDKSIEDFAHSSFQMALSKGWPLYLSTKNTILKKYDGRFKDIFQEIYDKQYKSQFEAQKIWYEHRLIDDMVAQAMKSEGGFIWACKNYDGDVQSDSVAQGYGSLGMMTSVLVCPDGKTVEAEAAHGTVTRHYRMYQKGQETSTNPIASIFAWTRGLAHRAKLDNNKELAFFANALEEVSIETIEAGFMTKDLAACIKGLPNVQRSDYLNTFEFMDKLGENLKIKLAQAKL
T2 sequence (O75874 whole entry R132C): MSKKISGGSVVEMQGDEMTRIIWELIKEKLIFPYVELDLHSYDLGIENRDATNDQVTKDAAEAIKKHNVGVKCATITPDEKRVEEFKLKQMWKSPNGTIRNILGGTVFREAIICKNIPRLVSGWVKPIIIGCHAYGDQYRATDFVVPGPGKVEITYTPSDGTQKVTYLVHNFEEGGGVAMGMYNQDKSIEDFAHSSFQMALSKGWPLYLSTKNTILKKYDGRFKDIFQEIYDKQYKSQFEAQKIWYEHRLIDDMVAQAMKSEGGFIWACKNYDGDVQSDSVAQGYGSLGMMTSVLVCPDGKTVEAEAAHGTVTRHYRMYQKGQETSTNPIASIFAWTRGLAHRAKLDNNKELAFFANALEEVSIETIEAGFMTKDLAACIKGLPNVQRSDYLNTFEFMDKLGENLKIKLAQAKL
T1 sequence (O75874 whole entry R132H): as the sequence (O75874 whole entry R132C) above, with C132H counted along it

IC50 (IDH1 R132H) | IC50 (IDH1 R132C) | IC50 [1] | Structure (SMILES)
> 1000 nM | > 1000 nM | > 1000 nM | CCN1Cc2c(ccnc2N[C@@H](C)c2ccc(-c3ccc(C)cn3)c(F)c2)C1=O [Compound 82, (S)-2-ethyl-4-((1-(3-fluoro-4-(5-methylpyridin-2-yl)phenyl)ethyl)amino)-2,3-dihydro-1H-pyrrolo[3,4-c]pyridin-1-one]
< 100 nM | < 100 nM | < 100 nM | CCN1Cc2c(ccnc2N[C@@H](C)c2cc(F)c(-c3cc4c(cn3)COC4(C)C)cc2F)C1=O [Compound 146, (S)-4-((1-(4-(1,1-dimethyl-1,3-dihydrofuro[3,4-c]pyridin-6-yl)-2,5-difluorophenyl)ethyl)amino)-2-ethyl-2,3-dihydro-1H-pyrrolo[3,4-c]pyridin-1-one]
> 1000 nM | > 1000 nM | > 1000 nM | CCN1Cc2c(ccnc2N[C@@H](C)c2ccc(OCC3CNC3)c(F)c2)C1=O [Compound 28, (S)-4-((1-(4-(azetidin-3-ylmethoxy)-3-fluorophenyl)ethyl)amino)-2-ethyl-2,3-dihydro-1H-pyrrolo[3,4-c]pyridin-1-one]
> 1000 nM | > 1000 nM | > 1000 nM | CCN1Cc2c(ccnc2N[C@@H](C)c2ccc(-c3ccnc(C(F)(F)F)c3)c(F)c2)C1=O [Compound 34, (S)-2-ethyl-4-((1-(3-fluoro-4-(2-(trifluoromethyl)pyridin-4-yl)phenyl)ethyl)amino)-2,3-dihydro-1H-pyrrolo[3,4-c]pyridin-1-one]
< 100 nM | < 100 nM | < 100 nM | CCN1Cc2c(ccnc2N[C@@H](C)c2cc(F)c(-c3cc(C(C)(C)F)c(OCOC)cn3)cc2F)C1=O [Compound 161, (S)-4-((1-(2,5-difluoro-4-(4-(2-fluoropropan-2-yl)-5-(methoxymethoxy)pyridin-2-yl)phenyl)ethyl)amino)-2-ethyl-2,3-dihydro-1H-pyrrolo[3,4-c]pyridin-1-one]
< 100 nM | < 100 nM | < 100 nM | CCN1Cc2c(ccnc2N[C@@H](C)c2cc(F)c(-c3cc(C(C)(C)F)cc(OC)n3)cc2F)C1=O [Compound 120, (S)-4-((1-(2,5-difluoro-4-(4-(2-fluoropropan-2-yl)-6-methoxypyridin-2-yl)phenyl)ethyl)amino)-2-ethyl-2,3-dihydro-1H-pyrrolo[3,4-c]pyridin-1-one]
100 to 500 nM | 100 to 500 nM | 100 to 500 nM | CCN1Cc2c(ccnc2N[C@@H](C)c2cc(F)c(-c3cc(C(C)(C)F)c(O)cn3)cc2F)C1=O [Compound 162, (S)-4-((1-(2,5-difluoro-4-(4-(2-fluoropropan-2-yl)-5-hydroxypyridin-2-yl)phenyl)ethyl)amino)-2-ethyl-2,3-dihydro-1H-pyrrolo[3,4-c]pyridin-1-one]
500 to 1000 nM | > 1000 nM | > 1000 nM | CCN1Cc2c(ccnc2N[C@@H](C)c2cc(F)c(-c3ccnc(C(F)(F)F)c3)cc2F)C1=O [Compound 88, (S)-4-((1-(2,5-difluoro-4-(2-(trifluoromethyl)pyridin-4-yl)phenyl)ethyl)amino)-2-ethyl-2,3-dihydro-1H-pyrrolo[3,4-c]pyridin-1-one]
< 100 nM | < 100 nM | < 100 nM | CCN1Cc2c(ccnc2N[C@@H](C)c2cc(F)c(-c3cc(C(F)(F)F)c(OC)cn3)cc2F)C1=O [Compound 165, (S)-4-((1-(2,5-difluoro-4-(5-methoxy-4-(trifluoromethyl)pyridin-2-yl)phenyl)ethyl)amino)-2-ethyl-2,3-dihydro-1H-pyrrolo[3,4-c]pyridin-1-one]
> 1000 nM | > 1000 nM | > 1000 nM | CCN1Cc2c(ccnc2N[C@@H](C)c2cc(F)c(-c3ccnc(C4COC4)c3)cc2F)C1=O [Compound 93, (S)-4-((1-(2,5-difluoro-4-(2-(oxetan-3-yl)pyridin-4-yl)phenyl)ethyl)amino)-2-ethyl-2,3-dihydro-1H-pyrrolo[3,4-c]pyridin-1-one]
< 100 nM | < 100 nM | < 100 nM | CCN1Cc2c(ccnc2N[C@@H](C)c2cc(F)c(-c3cc(C(C)(C)F)cc(C)n3)cc2F)C1=O [Compound 113, (S)-4-((1-(2,5-difluoro-4-(4-(2-fluoropropan-2-yl)-6-methylpyridin-2-yl)phenyl)ethyl)amino)-2-ethyl-2,3-dihydro-1H-pyrrolo[3,4-c]pyridin-1-one]
> 1000 nM | > 1000 nM | > 1000 nM | CCN1Cc2c(ccnc2N[C@@H](C)c2ccc(C(=O)NC3CCCCC3)c(Cl)c2)C1=O [Compound 62, (S)-2-chloro-N-cyclohexyl-4-(1-((2-ethyl-1-oxo-2,3-dihydro-1H-pyrrolo[3,4-c]pyridin-4-yl)amino)ethyl)benzamide]
100 to 500 nM | 100 to 500 nM | 500 to 1000 nM | CCN1Cc2c(ccnc2N[C@@H](C)c2ccc(Oc3ccc4c(cnn4C)c3)c(F)c2)C1=O [Compound 1, 2-ethyl-4-[[(1S)-1-[3-fluoro-4-(1-methylindazol-5-yl)oxy-phenyl]ethyl]amino]-3H-pyrrolo[3,4-c]pyridin-1-one]
< 100 nM | < 100 nM | 100 to 500 nM | CCN1Cc2c(ccnc2N[C@@H](C)c2cc(F)c(-c3cc(C(C)(C)F)ncc3OC)cc2F)C1=O [Compound 132, (S)-4-((1-(2,5-difluoro-4-(2-(2-fluoropropan-2-yl)-5-methoxypyridin-4-yl)phenyl)ethyl)amino)-2-ethyl-2,3-dihydro-1H-pyrrolo[3,4-c]pyridin-1-one]
100 to 500 nM | 500 to 1000 nM | 500 to 1000 nM | CCN1Cc2c(ccnc2N[C@@H](C)c2cc(F)c(-c3cc(C(F)(F)F)c(O)cn3)cc2F)C1=O [Compound 164, (S)-4-((1-(2,5-difluoro-4-(5-hydroxy-4-(trifluoromethyl)pyridin-2-yl)phenyl)ethyl)amino)-2-ethyl-2,3-dihydro-1H-pyrrolo[3,4-c]pyridin-1-one]
< 100 nM | < 100 nM | < 100 nM | CCN1Cc2c(ccnc2N[C@@H](C)c2cc(F)c(-c3cc(C4(C(F)(F)F)CC4)ccn3)cc2F)C1=O [Compound 124, (S)-4-((1-(2,5-difluoro-4-(4-(1-(trifluoromethyl)cyclopropyl)pyridin-2-yl)phenyl)ethyl)amino)-2-ethyl-2,3-dihydro-1H-pyrrolo[3,4-c]pyridin-1-one]
< 100 nM | < 100 nM | < 100 nM | CCN1Cc2c(ccnc2N[C@@H](C)c2cc(F)c(-c3cc(C(C)(C)F)c(OC)cn3)cc2F)C1=O [Compound 135, (S)-4-((1-(2,5-difluoro-4-(4-(2-fluoropropan-2-yl)-5-methoxypyridin-2-yl)phenyl)ethyl)amino)-2-ethyl-2,3-dihydro-1H-pyrrolo[3,4-c]pyridin-1-one]
< 100 nM | < 100 nM | 100 to 500 nM | CCN1Cc2c(ccnc2N[C@@H](C)c2cc(F)c(-c3ccnc(C(C)(C)C)c3)c(F)c2)C1=O [Compound 43, (S)-4-((1-(4-(2-(tert-butyl)pyridin-4-yl)-3,5-difluorophenyl)ethyl)amino)-2-ethyl-2,3-dihydro-1H-pyrrolo[3,4-c]pyridin-1-one]
< 100 nM | 100 to 500 nM | 500 to 1000 nM | CCN1Cc2c(ccnc2N[C@@H](C)c2cc(F)c(-c3cc(C(F)(F)F)cc(Cl)n3)cc2F)C1=O [Compound 121, (S)-4-((1-(4-(6-chloro-4-(trifluoromethyl)pyridin-2-yl)-2,5-difluorophenyl)ethyl)amino)-2-ethyl-2,3-dihydro-1H-pyrrolo[3,4-c]pyridin-1-one]
100 to 500 nM | 100 to 500 nM | 500 to 1000 nM | CCN1Cc2c(ccnc2N[C@@H](C)c2ccc(-c3ccnc(C4CCC4)c3)c(F)c2)C1=O [Compound 77, (S)-4-((1-(4-(2-cyclobutylpyridin-4-yl)-3-fluorophenyl)ethyl)amino)-2-ethyl-2,3-dihydro-1H-pyrrolo[3,4-c]pyridin-1-one]
100 to 500 nM | 500 to 1000 nM | 100 to 500 nM | CCN1Cc2c(ccnc2N[C@@H](C)c2cc(F)c(-c3ccnc(-c4ccnc(Cl)c4)c3)cc2F)C1=O [Compound 96, (S)-4-((1-(4-(2′-chloro-[2,4′-bipyridin]-4-yl)-2,5-difluorophenyl)ethyl)amino)-2-ethyl-2,3-dihydro-1H-pyrrolo[3,4-c]pyridin-1-one]
> 1000 nM | > 1000 nM | > 1000 nM | CCN1Cc2c(ccnc2N[C@@H](C)c2ccc(-c3ccc(C(F)(F)F)nc3)c(F)c2)C1=O [Compound 75, (S)-2-ethyl-4-((1-(3-fluoro-4-(6-(trifluoromethyl)pyridin-3-yl)phenyl)ethyl)amino)-2,3-dihydro-1H-pyrrolo[3,4-c]pyridin-1-one]

Structure (SMILES) | IC50 (IDH1 R132H) | IC50 (IDH1 R132C) | IC50 [1]
CCN1Cc2c(ccnc2N[C@@H](C)c2cc(F)c(-c3cc(OC(C)(C)C)cc(C)n3)cc2F)C1=O [Compound 129, (S)-4-((1-(4-(4-(tert-butoxy)-6-methylpyridin-2-yl)-2,5-difluorophenyl)ethyl)amino)-2-ethyl-2,3-dihydro-1H-pyrrolo[3,4-c]pyridin-1-one] | < 100 nM | < 100 nM | < 100 nM
